In US20210145801A1, “THERAPY FOR PROTEIN MISFOLDING DISEASE” (WREN THERAPEUTICS LIMITED, priority 2018, published 2021):
Like-named read-outs stand apart in the source and are kept apart here.

How the values were obtained:
[1] = target: T1, Aβ42 fibrils (Homo sapiens, UniProt P05067); assay: Dot blot assay with fibril-specific OC antibody; assay type: biochemical; details: 2 μM Aβ42; 5-fold excess of compound; eight time points
T1 construct: made in house; host or cells: E. coli BL21 Gold (DE3)
Protocol: Blotting was performed using Aβ42 fibril-specific antibody (OC, Millipore). During the time course of the aggregation of a 2 μM Aβ42 in the absence and in the presence of 5-fold excess of Netoglitazone, 4 μL Aβ42 aliquots were removed from the mixture at different time points for blotting with OC. Aβ42 aliquots were spotted onto a nitrocellulose membrane (0.2 μm, Whatman) and then the membranes were dried and then blocked with Blocking One (Nacalai tesque) before immuno-detection. OC was used according to the manufacturer's instructions. Alexa Fluor® 488-conjugated secondary antibodies (Life technologies) were subsequently added and fluorescence detection was performed using Typhoon Trio Imager (GE Healthcare).

[2] = target: T2, Aβ42 (Homo sapiens, UniProt P05067); assay: ThT kinetic assay of Aβ42 aggregation (unseeded); assay type: biochemical
T2 construct: made in house; host or cells: E. coli BL21 Gold (DE3)
Description: The recombinant Aβ(M1-42) peptide ([…]-SNKGAIIGLMVGGVVIA [SEQ ID NO: 1]), here called Aβ42, was expressed in the E. coli BL21 Gold (DE3) strain (Stratagene, Calif., U.S.A.) and purified as described previously with slight modifications. Briefly, the purification procedure involved sonication of E. coli cells, dissolution of inclusion bodies in 8 M urea, and ion exchange in batch mode on diethylaminoethyl cellulose resin and lyophylization. The lyophilized fractions were further purified using Superdex 75 HR 26/60 column (GE Healthcare, Buckinghamshire, U.K.) and eluates were analyzed using SDS-PAGE for the presence of the desired protein product. The fractions containing the recombinant protein were combined, frozen using liquid nitrogen, and lyophilized again.
Except for Netoglitazone, which was custom synthesised by GVK BIO, all small molecules were purchased with a purity greater than 99%. Small molecules were first solubilized in 100% DMSO to a concentration of 5 mM, and then diluted in the peptide solution to reach a final DMSO concentration of maximum 1-3%. We verified that the addition of DMSO in the reaction mixture has no effect on Aβ42 aggregation.
Solutions of monomeric peptides were prepared by dissolving the lyophilized Aβ42 peptide in 6 M GuHCl. Monomeric forms were purified from potential oligomeric species and salt using a Superdex 75 10/300 GL column (GE Healthcare) at a flowrate of 0.5 mL/min, and were eluted in 20 mM sodium phosphate buffer, pH 8 supplemented with 200 μM EDTA and 0.02% NaN3. The centre of the peak was collected, and the peptide concentration was determined from the absorbance of the integrated peak area using ε280=1490 L mol^−1 cm^−1. The obtained monomer was diluted with buffer to the desired concentration and supplemented with 20 μM Thioflavin T (ThT) from a 1 mM stock. All samples were prepared in low binding Eppendorf tubes on ice using careful pipetting to avoid introduction of air bubbles. Each sample was then pipetted into multiple wells of a 96-well half-area, low-binding, clear bottom and PEG coating plate (Corning 3881), 80 μL per well. Aβ42 kinetics have been performed in the absence or the presence of Netoglitazone, Mitoglitazone, Rosiglotazone, Rivoglitazone, Pioglitazone, Ciglitazone, Englitazone, Darglitazone, Troglitazone and Balaglitazone.
The time evolution of the total fibril mass concentration is described as a function only of the initial conditions and the rate constants of the system by the integrated rate law given by Eq. (54) in Cohen et al., J Chem Phys 135, 065106, 2011.
These are related to the rate of formation of new aggregates through primary pathways λ=√{square root over (2k+knm(0)^n^c)} and through secondary pathways κ=√{square root over (2k+k2m(0)^n^2^+1)}, where the initial concentration of soluble monomers is denoted by m(0), nc and n2 describe the dependencies of the primary and secondary pathways on the monomer concentration (nc=n2=2 for Aβ42), and kn, k+ and k2 are the rate constants of the primary nucleation, elongation and secondary nucleation, respectively (Cohen et al., Proc Natl Acad Sci USA, 110(24), 9758-63, 2013).
Inhibitors can interfere with the aggregation process by inhibiting one or more of the individual microscopic steps.

[3] = Pharmacokinetic study, single oral dose; assay type: in vivo, male, Swiss Albino mice; details: 11.5 mg/kg p.o.; for concentration at 6 h: oral
Protocol: The pharmacokinetic profile was assessed in male, Swiss Albino mice in a discrete study using a single per oral dose of Netoglitazone (11.5 mg/kg, 30 μmoles/kg) formulated as a solution in 10% NMP/90% Solutol (as a 20% v/v solution in PBS). The dosing concentration was 2.3 mg/mL with a dosing volume of 5.0 mL/kg. Data were derived from the average of 3 animals per timepoint (terminal sampling). Plasma samples were collected at 0.25, 0.50, 1.0, 2.0, 4.0, 6.0, 8.0 and 24 hours by protein precipitation method with acetonitrile. Brain samples were collected at 6.0 and 24 hours by brain homogenisation and protein precipitation method with acetonitrile. Cerebrospinal fluid (CSF) samples were collected at 6.0 and 24 hours by protein precipitation method with acetonitrile. Samples were analysed using UHPLC with TOF mass spectrometry using electrospray ionisation.

[4] = system: Aβ1-42Neur worms (CL2355); assay: Automated motility assay in Aβ1-42Neur worms; assay type: in vivo, C. elegans; details: vs untreated worms
Protocol: Briefly, Netoglitazone stocks (5 mM in 100% DMSO) were used at an appropriate concentration to seed 9-cm NGM plates. Plates were then placed in a laminar flow hood at room temperature (22° C.) for up to 4 hours to dry. C. elegans cultures were then transferred onto media seeded with compound as L4 stage or Day 3 for late treatments and incubated at 24° for the whole experiment. Experiments were carried out at different Netoglitazone concentrations ranging from 0.05 to 500 μM in 1% DMSO. As controls, plates seeded only with 1% DMSO were used.
All C. elegans populations were cultured at 20° C. and developmentally synchronized from a 4 h egg-lay. At 64-72 h post-egg-lay (time zero), individuals were transferred to FUDR plates, and body movements were assessed over the times indicated. At different ages, the animals were washed off the plates with M9 buffer and spread over an OP-50 unseeded 9 cm plate, after which their movements were recorded at 20 fps using a recently developed microscopic procedure (M. Perni et al., Massively parallel C. elegans tracking provides multi-dimensional fingerprints for phenotypic discovery. J. Neurosci. Methods. 306, 57-67 (2018)) for 1 min. Up to 600 animals were counted in each experiment in duplicate unless stated otherwise. […]

[5] = male, Swiss Albino, mouse, plasma, po, single dose

T2 sequence (P05067 671-713): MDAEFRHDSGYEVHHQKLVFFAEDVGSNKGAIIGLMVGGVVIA
T1 sequence (P05067 671-713): as above

O=C1NC(=O)C(Cc2ccc3cc(OCc4ccccc4F)ccc3c2)S1 (stereo not drawn) [Netoglitazone]
Delay of Aβ42 fibril formation in dot-blot assay [1]: identical within experimental error to that observed in the ThT-based assay
Effect on rate constants of primary (knk+) and secondary (k2k+) pathways ([2]; 2 μM Aβ42, unseeded, fit of rate laws): can affect both nucleation pathways in Aβ42 aggregation to different extents
Delay of Aβ42 aggregation (ThT fibril formation) ([2]; 2 μM Aβ42, range of Netoglitazone concentrations): substantial delay in Aβ42 aggregation was observed in a concentration-dependent manner
Brain penetration across the blood brain barrier [3]: good brain penetration across the blood brain barrier
concentration at 6 h ([3]; male, Swiss Albino, mouse, CSF, read-out: CSF levels): 50 ng/mL
concentration at 6 h ([3]; male, Swiss Albino, mouse, brain homogenate, read-out: Total brain levels): 8540 ng/g
Cmax [3, 5]: 14400 ng/mL
Tmax [3, 5]: 6 h
Motility of Aβ1-42Neur worms [4]: significantly improves the (A) chemotaxis index and (B) motility
